Assays:
[1] = test system: boll weevil larvae; assay: Boll weevil larvae bioassay (diet incorporation); format: in vivo; settings: for lethal effects against boll weevil: incorporated at up to 200 &M in the standard diet
Protocol: Assays for activity against boll weevil larvae are carried out by incorporating the test sample into a agar liquid diet similar to that for southern corn rootworm [Marrone et al., 1985]. The test sample is substituted for the 20% water component. Neonate larvae are allowed to feed on the diet and mortality and growth stunting are evaluated.
Protein concentrations were determined spectrophotometrically with BCA protein reagent [Smith et al., 1985].

[2] = test system: H. zea neonate larvae; assay: B.t. / cholesterol oxidase synergy diet assay; format: in vivo, Helicoverpa zea; design: surv.: unit not given here; settings: CO 15 ppm, alone or in tandem; for Mean Larval wgt / Stunting Observed: 7-day
Protocol: (§1) Feeding assays were conducted for 7-10 days.

[3] = test system: fall armyworn (FAW) neonate larvae; assay: B.t. / cholesterol oxidase synergy diet assay; format: in vivo; settings: 7-day; each protein 15 ppm, alone or in tandem
Protocol: as §1

[4] = test system: black cutworm (BCW) larvae; assay: B.t. / cholesterol oxidase synergy diet assay; format: in vivo, Agrotis ipsilon; settings: each protein 15 ppm, alone or in tandem
[5] = test system: black cutworm (BCW) neonate; assay: Detached leaf assay with transgenic corn; format: in vivo, Agrotis ipsilon; settings: corn leaf tissue, 3d
From the text: A detached leaf assay was designed to evaluate biological activity of transgenic corn expressing either CryIA(b) alone or in combination with cholesterol oxidase (CO) against Agrotis ipsilon, black cutworm (BCW). In artificial diet assays, a synergistic response was observed when CO and CryIA(b) were combined.
Treatments included transgenic corn expressing either CryIA(b) alone or in combination with CO. Plant tissue from the F1 generation of two CO events crossed to a CryIA(b) event was used in this bioassay. The CO events included collosian and flushed. The CryIA(b) event was ezra. For each of the CO events by CryIA(b) cross, the CO isopopulations provide the tissue for each treatment.
CO expression was estimated to be 15 and 14 ppm for collosian and flushed, respectively. CryIA(b) expression was not quantitated. Historically, this event has reliably and consistently expressed the CryIA(b) protein at around 10 ppm.
Tissue was collected at the v6 stage from the youngest leaf of six plants for each treatment event combination. Four leaf samples (1.5×2.0 cm leaf pieces) were taken from each plant, where each piece was placed singly in a well of a 24-well microtiter plate. One neonate larva was added to each well and sealed with a mylar lidding. The assay was incubated for 3 days at 27° C. Larval weight (mg) and mortality was recorded. […] Although larval weight was less in the CryIA(b)+CO treatment for both events as compared to CryIA(b) alone (ca. 12%), the difference between the treatment means within an event was not significant.

[6] = test system: Tobacco budworm (TBW) neonate larvae; assay: B.t. / cholesterol oxidase synergy diet assay; format: in vivo; settings: 7-day; for surv.: n 96
Protocol: as §1

[7] = test system: beet armyworm (BAW) neonate larvae; assay: B.t. / cholesterol oxidase synergy diet assay; format: in vivo; settings: each protein 15 ppm, alone or in tandem; for Mean Larval wgt / Stunting Observed: 7-day
Protocol: as §1

[8] = test system: boll weevil or lepidopteran larvae; assay: Feeding of diet incubated with enzyme and then boiled; format: in vivo; settings: diet incubated one week with the enzyme, then boiled
From the text: While not being bound by this theory, it is believed that the 3-hydroxysteroid oxidase enzyme kills or stunts boll weevil larvae and stunts the growth of lepidopteran larvae by some action in the gut after ingestion.

[9] = test system: boll weevil larvae; assay: Homogenized cotton leaf tissue assay; format: in vivo; settings: six days, initial 24
Protocol: In order to test 3-hydroxysteroid oxidase against boll weevil larvae in a host tissue diet environment, a study was conducted in which cotton leaf tissue was the only nutritional component of an agar-based diet. Two cotton leaves (each approx. 5 inches wide ) with stems were homogenized at 50% C into 170 mL of a 1.6% agar solution containing 0.13% propionic acid, 0.014% phosphoric acid, and 30 mg each of streptomycin sulfate and chlortetracycline. Before addition of the leaves, 10% KOH was used to adjust the pH of the agar solution to 6.2. The leaf "diet" was allowed to cool to 40% C. Dilutions of cholesterol oxidase and a water control were incorporated into the leaf "diet", poured into insect diet trays and allowed to cool. Boll weevil eggs were added to the diet wells. The assay was evaluated six days later. […] This illustrates that the enzyme is insecticidal in the presence of intact cotton tissue and cells.

[10] = test system: tobacco budworm larvae; assay: Cottonseed diet (Pharmamedia flour) test with tobacco budworm; format: in vivo; settings: 100 ppm in cottonseed diet (Pharmamedia flour)
Protocol: The Southern corn rootworm diet used in the assay described above was the control. Two treatment diets were made by mixing 30 g of one of two types of cottonseed flour into 170 mL of a 1.6% agar solution at 50% C, containing 0.13% propionic acid, 0.014% phosphoric acid, and 30 mg each of streptomycin sulfate and chlortetracycline. Before mixing, 10% KOH was used to adjust the pH to 6.2. One test diet utilized raw cottonseed flour (Sigma) as the nutrient source; the other utilized Pharmamedia™ (Traders Protein), a flour made up of cottonseed embryos. The diets were incubated in a water bath at 40% C. Dilutions of the Sigma Streptomyces 3-hydroxysteroid oxidase (cholesterol oxidase) were incorporated into the diets as described above. Boll weevil larvae were allowed to feed and mortality rates were determined after six days.
In addition, tobacco budworm larvae are 68% stunted when exposed to 3-hydroxysteroid oxidase (100 ppm) in cottonseed diet (made with Pharmamedia™ flour).

[11] = test system: midguts of boll weevil larvae; assay: Midgut morphology of larvae feeding on enzyme diets; format: in vivo
From the text: The enzymatic action in the gut is believed to be oxidation of the 3-hydroxysteroid(s) of the cell membranes in the lining of the gut. The effects of ingested 3-hydroxysteroid oxidase on the midguts of boll weevil larvae have been studied. The midguts of boll weevil larvae (neonate and second instar at initiation of assay) feeding on diets containing sublethal doses of 3-hydroxysteroid oxidase were dissected out. Representative midguts were immediately placed in fixative and analyzed microscopically for morphological changes. […] There was a good correlation of the morphological changes with the observed mortality over the 3-hydroxysteroid oxidase concentration range in the diet. Parallel midguts were dissected and homogenized and found to contain active 3-hydroxysteroid oxidase in enzymatic assays.

[12] = CO 15 ppm, CryIA(c) 0.1 ppm, alone or in tandem
[13] = CryIA(c) 0.05 ppm, alone or with CO 15 ppm

Compound | lethal effects against boll weevil [1] | Mean Larval wgt ([2]; CryIA(b) 10 ppm) [mg] | Stunting Observed ([2]; CryIA(b) 10 ppm) [%] | Obs. Mort. ([2]; 7 day, CryIA(b) 10 ppm) [%] | surv. ([2]; 7 day, CryIA(b) 10 ppm) | Obs. Mort. ([2]; 8 day, CryIA(b) 10 ppm) [%] | surv. ([2]; 8 day, CryIA(b) 10 ppm) | Mean Larval wgt [3] [mg] | Obs. Mort. [3] [%] | Stunting Observed [3] [%] | surv. [3] | Obs. Mort. ([4]; 3rd instar 6 day) [%] | surv. ([4]; 3rd instar 6 day) | Mean Larval wgt ([4]; 3rd instar, 6-day assay) [mg] | Stunting Observed ([4]; 3rd instar, 6-day assay) [%] | Obs. Mort. ([4]; Neonate 6 day) [%] | surv. ([4]; Neonate 6 day) | Obs. Mort. ([4]; Neonate 7 day) [%] | surv. ([4]; Neonate 7 day) | Mean Larval wgt ([4]; Neonate, 7-day assay) [mg] | other results
CC(C)CCC[C@@H](C)[C@H]1CC[C@H]2[C@@H]3CCC4=CC(=O)CC[C@]4(C)[C@H]3CC[C@]12C [cholestenone, reference compound] | Nor do cholestenone or hydrogen peroxide, the products of enzymatic action on cholesterol, exhibit any lethal effects |  |  |  |  |  |  |  |  |  |  |  |  |  |  |  |  |  |  |  | 
OO [hydrogen peroxide, reference compound] | Nor do cholestenone or hydrogen peroxide, the products of enzymatic action on cholesterol, exhibit any lethal effects |  |  |  |  |  |  |  |  |  |  |  |  |  |  |  |  |  |  |  | 
CryIA(b): Bacillus thuringiensis crystal protein, purified; in Table 24 expressed in transgenic corn event ezra |  | 0.96 | 97 | 4.3 | 90 | 10 | 69 | 0.25 ± 0.05 | 10 | 99 | 80 | 0 | 32 | 216 | 15 | 0 | 91 | 2 | 76 | 13.64 | Stunting Observed ([4]; Neonate, 7-day assay): 7%; Mean Larval Weight ([5]; event collosian x ezra): 1.11 mg; Mort. ([5]; event collosian x ezra): 7%; Mean Larval Weight ([5]; event flushed x ezra): 1.27 mg; Mort. ([5]; event flushed x ezra): 8%
CryIA(c): Bacillus thuringiensis crystal protein, purified |  |  |  |  |  |  |  |  |  |  |  |  |  |  |  |  |  |  |  |  | Obs. Mort. ([2]; 7 day, CryIA(c) 15 ppm): 11%; surv. ([2]; 7 day, CryIA(c) 15 ppm): 82; Obs. Mort. ([2]; 10 day, CryIA(c) 15 ppm): 11%; surv. ([2]; 10 day, CryIA(c) 15 ppm): 82; Obs. Mort. [6, 12]: 38%; surv. [6, 12]: 56; Obs. Mort. [6, 13]: 23%; surv. [6, 13]: 70; Mean Larval wgt [7]: 6.15 ± 0.90 mg; Stunting Observed [7]: 88%; Obs. Mort. ([7]; 7 day): 2%; surv. ([7]; 7 day): 94; Obs. Mort. ([7]; 8 day): 3%; surv. ([7]; 8 day): 70
catalase [reference compound] |  |  |  |  |  |  |  |  |  |  |  |  |  |  |  |  |  |  |  |  | effect of added catalase on lethal effects of 3-hydroxysteroid oxidase on boll weevil ([1]; catalase added to 3-hydroxysteroid oxidase in the bioassay): does not block the lethal effects
cholesterol oxidase |  | 24.95 | 27 | 0 | 95 | 1 | 87 | 42.97 ± 1.77 | 2 | 0 | 90 | 0 | 32 | 197 | 22 | 2 | 81 | 1 | 61 | 9.93 | lethal or stunting effects [8]: no lethal or stunting effects; Obs. Mort. ([2]; 7 day, CryIA(c) 15 ppm): 0%; surv. ([2]; 7 day, CryIA(c) 15 ppm): 96; Obs. Mort. ([2]; 10 day, CryIA(c) 15 ppm): 0%; surv. ([2]; 10 day, CryIA(c) 15 ppm): 96; Obs. Mort. [6, 12]: 1%; surv. [6, 12]: 90; Mean Larval wgt [7]: 27.51 ± 5.52 mg; Stunting Observed [7]: 47%; Obs. Mort. ([7]; 7 day): 1%; surv. ([7]; 7 day): 94; Obs. Mort. ([7]; 8 day): 3%; surv. ([7]; 8 day): 77; Stunting Observed ([4]; Neonate, 7-day assay): 32%; Bollweevils Survivors ([9]; 10 ppm in cotton leaf diet): 20; Bollweevils Survivors ([9]; 50 ppm in cotton leaf diet): 12; Bollweevils Survivors ([9]; 100 ppm in cotton leaf diet): 0; stunted [10]: 68%; midgut morphological changes ([11]; higher doses): complete lysis of the cells; midgut morphological changes ([11]; larvae ingesting low doses): Disruption of the epithelial cell layer

Source: US5763245A, “Method of controlling insects” (priority 1996, dated 1998)
